Here are results for 3 molecules from PMC7655571, “Acetylcholinesterase inhibition in electric eel and human donor blood: an in vitro approach to investigate interspecies differences and human variability in toxicodynamics” (Archives of Toxicology, 2020).

Each structure is given as a SMILES string. “Also recorded” adds a separate entry of the source. Where two headings read alike, the source gives them in different places.

Data set [1] concerns the target T1, Electrophorus electricus AChE (Electrophorus electricus, UniProt O42275).
T1 construct: purchased Sigma-Aldrich C2888
The data set is described as follows: AChE inhibition, electric eel enzyme (Ellman method). The following applies: for AChE inhibition (in words), electric eel: concentration–response curves. It is filed as biochemical. (In general: DTNB colorimetry detects thiols as they appear.)
Method: (§1) A 1.3 mM DTNB buffer and a 6 mM acetylthiocholine buffer were prepared in the 50 mM sodium phosphate buffer, a 3 mM ethopropazine buffer was prepared in sterile water and all were stored in aliquots at − 20 °C. A 600 µM ethopropazine buffer was prepared just before use in sodium phosphate buffer.
(§2) Stock solutions were diluted in methanol to create a dosing series and also stored at − 20 °C. These series were 100× diluted in sodium phosphate buffer to get 1% methanol solutions, resulting in a final concentration of 0.1% methanol in the wells.
AChE from Electrophorus electricus (electric eel) and freshly drawn (maximum one-day-old), venous EDTA whole blood samples from healthy human donors were used. […] Following incubation for 30 min at room temperature, electric eel AChE was used directly in the enzyme activity assay (see “Enzyme activity assay”). For human blood AChE, 50 µL of the blood was added to a new 48-wells plate and 950 µL Triton buffer was added to these wells (20× dilution).
Briefly, 20 µL of electric eel AChE or 20 µL of Triton-diluted blood (either exposed or unexposed) and 20 µL ethopropazine were added to 460 µL of DTNB buffer in a 48-wells plate. […] Blank wells contained only DTNB buffer and unexposed enzyme/blood to correct for any background absorbance. To these wells, 100 µL sodium phosphate buffer was added instead of acetylthiocholine after incubation. The final concentration of electric eel AChE was 4 mU/well.
All in vitro data were analysed in GraphPad Prism (version 8.4) and are expressed as mean ± standard deviation (SD). For data analysis, vehicle control (0.1% methanol) was set at 100% for both human and electric eel AChE. For human blood, the technical replicates were averaged to perform statistical tests. […] The electric eel AChE data consisted of 3 technical replicates per experiment and 3–4 independent biological replicates.

The subject of another data set is electric eel AChE. The settings on record: cited from earlier work.
Data set [2] concerns the target human AChE (recombinant enzyme). The settings on record: source: recombinant enzyme; ref Li et al. ([2019]); cited from earlier work.
For data set [3] the following is noted: measured or estimated in plasma following human exposure, cited from earlier work.
The target in another data set is T2, human blood AChE (Homo sapiens, UniProt P22303).
T2 construct: 90 µL undiluted blood in a 48-wells plate; from tissue; host or cells: venous EDTA whole blood from healthy human donors, lysed and diluted in Triton X-100 buffer
The data set is described as follows: AChE inhibition in human donor whole blood (Ellman method). The following applies: for IC50: IC50 Human, whole blood, average of 20 donors; for AChE inhibition (in words), human blood: concentration–response curves. It counts as biochemical.

The subject of the next data set is human AChE (neocortex). The settings on record: source: neocortex; ref Jackisch et al. [2009]; cited from earlier work.
Another data set relates to human AChE (blood). The following applies: source: blood; ref Das et al. ([2006]); cited from earlier work.
In data set [4] the test system is human AChE (red blood cells). The settings on record: source: red blood cells; ref Ajilore et al. [2018]; cited from earlier work.

T2 sequence (P22303 32-617 isoform P22303-2 limits assumed): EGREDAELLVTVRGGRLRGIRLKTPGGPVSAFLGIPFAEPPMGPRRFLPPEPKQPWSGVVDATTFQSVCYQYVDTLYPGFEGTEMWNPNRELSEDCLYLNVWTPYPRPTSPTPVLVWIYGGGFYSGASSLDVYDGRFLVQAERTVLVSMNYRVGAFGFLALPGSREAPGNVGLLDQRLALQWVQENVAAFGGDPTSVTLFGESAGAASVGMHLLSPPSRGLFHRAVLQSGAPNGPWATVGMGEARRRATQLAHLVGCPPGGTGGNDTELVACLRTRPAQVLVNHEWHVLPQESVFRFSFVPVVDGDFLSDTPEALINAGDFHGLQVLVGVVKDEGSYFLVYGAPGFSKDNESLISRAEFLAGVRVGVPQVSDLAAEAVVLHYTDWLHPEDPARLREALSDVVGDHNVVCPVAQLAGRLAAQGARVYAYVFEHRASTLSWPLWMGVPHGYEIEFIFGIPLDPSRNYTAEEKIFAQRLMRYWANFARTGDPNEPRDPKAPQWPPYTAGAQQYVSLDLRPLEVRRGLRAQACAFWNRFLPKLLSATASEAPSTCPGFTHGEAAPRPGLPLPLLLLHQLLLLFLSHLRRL
T1 sequence (O42275 24-633): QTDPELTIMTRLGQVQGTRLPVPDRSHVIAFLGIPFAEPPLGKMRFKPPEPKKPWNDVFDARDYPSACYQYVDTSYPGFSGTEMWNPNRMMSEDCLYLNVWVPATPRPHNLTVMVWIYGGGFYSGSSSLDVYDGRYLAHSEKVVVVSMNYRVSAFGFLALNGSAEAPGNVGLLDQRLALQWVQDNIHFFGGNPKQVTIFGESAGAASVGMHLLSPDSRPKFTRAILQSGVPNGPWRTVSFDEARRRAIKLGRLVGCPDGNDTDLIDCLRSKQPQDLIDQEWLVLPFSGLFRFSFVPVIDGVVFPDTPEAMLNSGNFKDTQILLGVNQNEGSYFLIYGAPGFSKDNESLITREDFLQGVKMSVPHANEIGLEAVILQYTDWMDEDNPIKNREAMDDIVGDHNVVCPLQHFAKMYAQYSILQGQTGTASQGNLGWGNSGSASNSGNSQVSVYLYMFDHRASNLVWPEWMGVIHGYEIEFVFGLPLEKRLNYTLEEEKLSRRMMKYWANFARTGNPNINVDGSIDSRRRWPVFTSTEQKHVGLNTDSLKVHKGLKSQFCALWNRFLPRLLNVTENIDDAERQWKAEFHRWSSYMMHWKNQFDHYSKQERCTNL
Method for human blood AChE: as §1, §2
AChE from Electrophorus electricus (electric eel) and freshly drawn (maximum one-day-old), venous EDTA whole blood samples from healthy human donors were used. […] For human blood AChE, 50 µL of the blood was added to a new 48-wells plate and 950 µL Triton buffer was added to these wells (20× dilution).
Briefly, 20 µL of electric eel AChE or 20 µL of Triton-diluted blood (either exposed or unexposed) and 20 µL ethopropazine were added to 460 µL of DTNB buffer in a 48-wells plate. […] Blank wells contained only DTNB buffer and unexposed enzyme/blood to correct for any background absorbance. To these wells, 100 µL sodium phosphate buffer was added instead of acetylthiocholine after incubation.
Unexposed, diluted blood (100 µL) was added to a 96-wells plate and 100 µL transformation agent (20 mg potassium ferricyanide, 5 mg potassium cyanide, 100 mg sodium bicarbonate and 50 µL Triton X-100 in 100 mL water) was added. […] Blank wells contained transformation reagent and buffer to correct for any background absorbance.
All in vitro data were analysed in GraphPad Prism (version 8.4) and are expressed as mean ± standard deviation (SD). For data analysis, vehicle control (0.1% methanol) was set at 100% for both human and electric eel AChE. For human blood, the technical replicates were averaged to perform statistical tests. Unpaired t tests were used to test for differences between men and women and a one-way ANOVA followed by a post-hoc Tukey test was used to compare data between different age groups (group 1: ≥ 60 years; group 2: 31–60 years; group 3: ≤ 30 years).

Turning to `CCOP(=S)(OCC)Oc1cc(C)nc(C(C)C)n1` [DZN, diazinon], the IC50 was greater than 8.5 µM in data set [1]; 0.3 µM in the data set on electric eel AChE (ref Assis et al. ([2012])); greater than 200 µM in the data set with electric eel AChE (ref Čolović et al. ([2011])); 38 µM in data set [2]; greater than 10 µM against human blood AChE. Also, the “AChE inhibition (in words), electric eel” value in data set [1] is recorded as “do not show any AChE inhibition; also recorded: did not inhibit AChE”; in data set [1] (listed as diazinon) it was “did not show inhibition”. For the same molecule, the In vivo concentration in data set [3] (ref Buratti et al. ([2003])) was no more than 10 µM. The “AChE inhibition (in words), human blood” value was “do not inhibit AChE activity; also recorded: do not show any AChE inhibition; also recorded: did not inhibit AChE” at human blood AChE and “did not show inhibition” at human blood AChE (listed as diazinon).

In the case of `CCN(C)C(=O)Oc1cccc([C@H](C)N(C)C)c1` [RI, rivastigmine], the IC20 in data set [1] (30 min exposure, room temperature) was 16 µM. Moreover, in data set [1], the “AChE inhibition (in words), electric eel” value is reported as “show inhibition of AChE”. Moreover, the IC50 with electric eel AChE (ref Imramovsky et al. [2012]) was […]; in the data set on electric eel AChE (ref Kratky et al. [2018]), […]; with human AChE (neocortex), […]. Moreover, the figures for the In vivo concentration in data set [3] (ref Hossain et al. ([2002])) and in data set [3] (ref Lefèvre et al. ([2016])) were […] and […], respectively.

With `CCOP(=S)(OCC)Oc1nc(Cl)c(Cl)cc1Cl` [CPF, Chlorpyrifos], the half-maximal inhibitory concentration (IC50) in data set [1] was greater than 0.35 µM; in the data set with electric eel AChE (ref Assis et al. ([2012])), 0.03 µM; in the data set with electric eel AChE (ref Čolović et al. ([2011])), 4.5 µM; in the data set on human AChE (blood) it was 0.12 µM; in data set [4], 200 µM; on human blood AChE, greater than 10 µM. Further, the “AChE inhibition (in words), electric eel” value in data set [1] is listed as “do not show any AChE inhibition; also recorded: did not inhibit AChE”; in data set [1] (listed as chlorpyrifos), “did not show inhibition”. In addition, the values for the In vivo concentration in data set [3] (ref Buratti et al. ([2003])), in data set [3] (ref Eyer et al. ([2009])) and in data set [3] (ref Huen et al. ([2012])) were no more than 10 µM, no more than 5 µM and no more than 5 µM, respectively. Moreover, the entries for the “AChE inhibition (in words), human blood” value at human blood AChE and at human blood AChE (listed as chlorpyrifos) were “do not inhibit AChE activity; also recorded: do not show any AChE inhibition; also recorded: did not inhibit AChE” and “did not show inhibition”, respectively.

In general, IC50 refers to the midpoint of a concentration-inhibition curve. By IC20 is commonly meant the point of the concentration-response curve where the effect stands at 20%. A high value points to weaker potency.
